ChEMBL document CHEMBL4334516, “Kinase Chemodiversity from the Arctic: The Breitfussins” (J Med Chem, 2019)

Tests used:
[1] = molecular target: T1, Serine/threonine-protein kinase 17B (Homo sapiens, UniProt O94768); experiment: Binding affinity to wild-type human full length DRAK2 (M1 to C372 residues) expressed in bacterial expression system by active-site directed competition binding assay based Kinomescan method
T1 sequence (O94768 whole entry): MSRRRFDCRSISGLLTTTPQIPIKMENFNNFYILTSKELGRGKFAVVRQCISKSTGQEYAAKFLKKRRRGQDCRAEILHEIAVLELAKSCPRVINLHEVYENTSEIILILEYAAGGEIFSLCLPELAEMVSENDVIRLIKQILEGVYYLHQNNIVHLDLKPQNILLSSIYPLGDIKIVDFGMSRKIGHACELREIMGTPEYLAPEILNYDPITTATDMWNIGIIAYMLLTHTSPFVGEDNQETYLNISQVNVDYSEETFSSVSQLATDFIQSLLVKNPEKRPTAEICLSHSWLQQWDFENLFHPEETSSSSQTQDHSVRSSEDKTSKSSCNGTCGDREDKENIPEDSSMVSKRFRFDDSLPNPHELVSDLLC

Aurora kinase B = Aurora kinase B (Homo sapiens, UniProt Q96GD4); experiment: Binding affinity to wild-type human partial length AURKB (D25 to A303 residues) expressed in mammalian expression system assessed as residual binding level at 10 uM by active-site directed competition binding assay based Kinomescan method relative to control
Aurora kinase B, sequence (Q96GD4 whole entry, the tested form may be a part): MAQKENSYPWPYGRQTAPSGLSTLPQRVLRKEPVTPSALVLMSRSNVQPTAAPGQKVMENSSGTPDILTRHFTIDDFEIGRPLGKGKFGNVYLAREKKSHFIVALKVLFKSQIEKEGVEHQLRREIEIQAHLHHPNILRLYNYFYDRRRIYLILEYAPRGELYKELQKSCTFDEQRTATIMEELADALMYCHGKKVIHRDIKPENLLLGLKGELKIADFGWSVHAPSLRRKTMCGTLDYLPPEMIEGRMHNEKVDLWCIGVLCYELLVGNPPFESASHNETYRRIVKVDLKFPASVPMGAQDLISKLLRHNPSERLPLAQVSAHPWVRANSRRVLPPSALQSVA

COc1cc2c(-c3cnc(-c4ccc[nH]4)o3)c[nH]c2cc1Br
Kd [1]: 390 nM
Activity (Aurora kinase B): 50%
